Test results from article PMC5218480 (PLoS ONE, 2017).

Tested on: MV-4-11 cells
Assay: Gene expression microarray analysis (Affymetrix PrimeView) and GSEA
Type: cell-based, human
Parameters: RFU PODN (11730768_x_at) / Fold change /veh PODN (11730768_x_at) / RFU LINC00158 (11744669_a_at) / Fold change /veh LINC00158 (11744669_a_at) / RFU DUSP10 (11751237_a_at) / Fold change /veh DUSP10 (11751237_a_at) / RFU ID3 (11757404_x_at) / Fold change /veh ID3 (11757404_x_at) / RFU PLEKHG5 (11737974_s_at) / Fold change /veh PLEKHG5 (11737974_s_at) / RFU LRRC4B (11730491_at) / Fold change /veh LRRC4B (11730491_at) / RFU GIMAP4 (11747438_a_at) / Fold change /veh GIMAP4 (11747438_a_at) / RFU KRT8 (11758183_x_at) / Fold change /veh KRT8 (11758183_x_at) / RFU CNN1 (11734310_a_at) / Fold change /veh CNN1 (11734310_a_at) / RFU VPS37D (11726825_at) / Fold change /veh VPS37D (11726825_at) / RFU C10orf10 (11716522_x_at) / Fold change /veh C10orf10 (11716522_x_at) / RFU KIR2DL2 /// KIR2DL4 /// KIR2DL5A /// KIR2DL5B /// KIR2DS1 /// KIR2DS2 /// KIR2DS3 /// KIR2DS4 /// KIR3DL3 /// KIR3DL3 /// KIR3DS1 (11738374_at) / Fold change /veh KIR2DL2 /// KIR2DL4 /// KIR2DL5A /// KIR2DL5B /// KIR2DS1 /// KIR2DS2 /// KIR2DS3 /// KIR2DS4 /// KIR3DL3 /// KIR3DL3 /// KIR3DS1 (11738374_at) / RFU C1QL1 (11718748_at) / Fold change /veh C1QL1 (11718748_at) / RFU TMPRSS4 (11747572_a_at) / Fold change /veh TMPRSS4 (11747572_a_at) / RFU HAMP (11756126_x_at) / Fold change /veh HAMP (11756126_x_at) / RFU RNFT2 (11725882_a_at) / Fold change /veh RNFT2 (11725882_a_at) / RFU NR4A2 (11747474_a_at) / Fold change /veh NR4A2 (11747474_a_at) / RFU ABCC12 (11746883_a_at) / Fold change /veh ABCC12 (11746883_a_at) / RFU TMEM136 (11760407_x_at) / Fold change /veh TMEM136 (11760407_x_at) / RFU CLDN22 /// WWC2 (11732394_at) / Fold change /veh CLDN22 /// WWC2 (11732394_at) / RFU HLA-DPB1 (11760878_x_at) / Fold change /veh HLA-DPB1 (11760878_x_at) / RFU SPINT1 (11716480_a_at) / Fold change /veh SPINT1 (11716480_a_at) / RFU GAP43 (11754022_s_at) / Fold change /veh GAP43 (11754022_s_at) / RFU A4GNT (11735810_at) / Fold change /veh A4GNT (11735810_at) / RFU PRB3 (11715151_x_at) / Fold change /veh PRB3 (11715151_x_at) / RFU TUBB4B (11761932_at) / Fold change /veh TUBB4B (11761932_at) / RFU CAPN14 (11732068_a_at) / Fold change /veh CAPN14 (11732068_a_at) / RFU TMCC2 (11721928_a_at) / Fold change /veh TMCC2 (11721928_a_at) / RFU IRGQ (11745062_a_at) / Fold change /veh IRGQ (11745062_a_at) / RFU FAM174B (11720279_a_at) / Fold change /veh FAM174B (11720279_a_at) / RFU TMPRSS4 (11748680_a_at) / Fold change /veh TMPRSS4 (11748680_a_at) / RFU FAM212B (11763350_a_at) / Fold change /veh FAM212B (11763350_a_at) / RFU PLEKHG5 (11743358_a_at) / Fold change /veh PLEKHG5 (11743358_a_at) / RFU ZSCAN30 (11745921_a_at) / Fold change /veh ZSCAN30 (11745921_a_at) / RFU CMKLR1 (11741424_a_at) / Fold change /veh CMKLR1 (11741424_a_at) / RFU LOC101060620 /// MAPK8IP1 (11723275_at) / Fold change /veh LOC101060620 /// MAPK8IP1 (11723275_at) / RFU SPTSSB (11747773_x_at) / Fold change /veh SPTSSB (11747773_x_at) / RFU PRSS12 (11739890_at) / Fold change /veh PRSS12 (11739890_at) / RFU BIN1 (11741810_x_at) / Fold change /veh BIN1 (11741810_x_at) / RFU WNT11 (11732464_a_at) / Fold change /veh WNT11 (11732464_a_at) / RFU C10orf10 (11716521_a_at) / Fold change /veh C10orf10 (11716521_a_at) / RFU C5orf56 (11738089_at) / Fold change /veh C5orf56 (11738089_at) / RFU CYB561 (11721691_x_at) / Fold change /veh CYB561 (11721691_x_at) / RFU ANKRD19P (11752326_a_at) / Fold change /veh ANKRD19P (11752326_a_at) / RFU OR2T12 /// OR2T33 /// OR2T8 (11738714_s_at) / Fold change /veh OR2T12 /// OR2T33 /// OR2T8 (11738714_s_at) / RFU VCAN (11748164_a_at) / Fold change /veh VCAN (11748164_a_at) / RFU JSRP1 (11732532_at) / Fold change /veh JSRP1 (11732532_at) / RFU KRTAP10-11 (11738290_x_at) / Fold change /veh KRTAP10-11 (11738290_x_at) / RFU MYO3A (11730013_a_at) / Fold change /veh MYO3A (11730013_a_at) / RFU EBF3 (11725865_a_at) / Fold change /veh EBF3 (11725865_a_at) / RFU CAMK2N1 (11719241_x_at) / Fold change /veh CAMK2N1 (11719241_x_at) / RFU C5orf56 (11738088_a_at) / Fold change /veh C5orf56 (11738088_a_at) / RFU OLFML3 (11715873_a_at) / Fold change /veh OLFML3 (11715873_a_at) / RFU LOC100653217 /// NTM (11731650_a_at) / Fold change /veh LOC100653217 /// NTM (11731650_a_at) / RFU MAPK11 (11762145_a_at) / Fold change /veh MAPK11 (11762145_a_at) / RFU FIZ1 (11724087_x_at) / Fold change /veh FIZ1 (11724087_x_at) / RFU OASL (11726364_x_at) / Fold change /veh OASL (11726364_x_at) / RFU SOX15 (11748057_x_at) / Fold change /veh SOX15 (11748057_x_at) / RFU CD79A (11719716_a_at) / Fold change /veh CD79A (11719716_a_at) / RFU HIST1H1D (11736915_at) / Fold change /veh HIST1H1D (11736915_at) / RFU CASKIN2 (11723855_a_at) / Fold change /veh CASKIN2 (11723855_a_at) / RFU LOC730098 (11760151_x_at) / Fold change /veh LOC730098 (11760151_x_at) / RFU OR4N2 (11742367_at) / Fold change /veh OR4N2 (11742367_at) / RFU PRRT2 (11749266_a_at) / Fold change /veh PRRT2 (11749266_a_at) / RFU SNX32 (11753110_a_at) / Fold change /veh SNX32 (11753110_a_at) / RFU CDHR5 (11726645_a_at) / Fold change /veh CDHR5 (11726645_a_at) / RFU RCAN1 (11760418_a_at) / Fold change /veh RCAN1 (11760418_a_at) / RFU FAM167A (11723789_a_at) / Fold change /veh FAM167A (11723789_a_at) / RFU FAM26E (11764081_at) / Fold change /veh FAM26E (11764081_at) / RFU ISYNA1 (11749810_s_at) / Fold change /veh ISYNA1 (11749810_s_at) / RFU ACY1 (11761880_at) / Fold change /veh ACY1 (11761880_at) / RFU 11764098_at / Fold change /veh 11764098_at / RFU SAMD14 (11745864_x_at) / Fold change /veh SAMD14 (11745864_x_at) / RFU NPB (11741838_a_at) / Fold change /veh NPB (11741838_a_at) / RFU TMPRSS6 (11731388_a_at) / Fold change /veh TMPRSS6 (11731388_a_at) / RFU KRTAP10-2 (11738614_at) / Fold change /veh KRTAP10-2 (11738614_at) / RFU ARHGAP8 /// PRR5-ARHGAP8 (11727945_x_at) / Fold change /veh ARHGAP8 /// PRR5-ARHGAP8 (11727945_x_at) / RFU KRTAP5-7 /// NADSYN1 (11734609_at) / Fold change /veh KRTAP5-7 /// NADSYN1 (11734609_at) / RFU RASL12 (11751679_a_at) / Fold change /veh RASL12 (11751679_a_at) / RFU CDKN2B (11736163_a_at) / Fold change /veh CDKN2B (11736163_a_at) / RFU PRF1 (11729649_at) / Fold change /veh PRF1 (11729649_at) / RFU, ZNF638 /// ZNF638-IT1 / Fold change vs veh, ZNF638 /// ZNF638-IT1 / RFU, PANK3 / Fold change vs veh, PANK3 / RFU, SH3YL1 / Fold change vs veh, SH3YL1 / RFU, ZEB2 / Fold change vs veh, ZEB2 / RFU, NRIP1 / Fold change vs veh, NRIP1 / RFU, PTTG1IP / Fold change vs veh, PTTG1IP / RFU, CAPN2 / Fold change vs veh, CAPN2 / RFU, MED14 / Fold change vs veh, MED14 / RFU, SNORA58 / Fold change vs veh, SNORA58 / RFU, C1orf63 / Fold change vs veh, C1orf63 / RFU, LRRFIP1 / Fold change vs veh, LRRFIP1 / RFU, NDUFAF7 / Fold change vs veh, NDUFAF7 / RFU, SLC12A2 / Fold change vs veh, SLC12A2 / RFU, IBTK / Fold change vs veh, IBTK / RFU, ESF1 / Fold change vs veh, ESF1 / Fold change vs veh, TMEM50B / RFU, TAOK1 / Fold change vs veh, TAOK1 / RFU, ACBD3 / Fold change vs veh, ACBD3 / RFU, TMA16 / Fold change vs veh, TMA16 / RFU, RWDD3 / Fold change vs veh, RWDD3 / RFU, BCAT1 / Fold change vs veh, BCAT1 / RFU, EDEM3 / Fold change vs veh, EDEM3 / RFU, TMEM33 / Fold change vs veh, TMEM33 / RFU, WDR75 / Fold change vs veh, WDR75 / RFU, AHCTF1 / Fold change vs veh, AHCTF1 / RFU, TFRC / Fold change vs veh, TFRC / RFU, ZDHHC17 / Fold change vs veh, ZDHHC17 / RFU, NOM1 / Fold change vs veh, NOM1 / RFU, ARL8B / Fold change vs veh, ARL8B / RFU, ZBTB11 / Fold change vs veh, ZBTB11 / RFU, TAMM41 / Fold change vs veh, TAMM41 / RFU, KIAA1704 /// LOC100996395 / Fold change vs veh, KIAA1704 /// LOC100996395 / RFU, ING1 / Fold change vs veh, ING1 / RFU, TRMT61B / Fold change vs veh, TRMT61B / RFU, FUBP3 / Fold change vs veh, FUBP3 / RFU, TP53 / Fold change vs veh, TP53 / RFU, TNKS2 / Fold change vs veh, TNKS2 / RFU, ZFP14 / Fold change vs veh, ZFP14 / RFU, ACTR2 / Fold change vs veh, ACTR2 / RFU, PPP3R1 / Fold change vs veh, PPP3R1 / RFU, PIK3R1 / Fold change vs veh, PIK3R1 / RFU, HNRNPA1 / Fold change vs veh, HNRNPA1 / RFU, RNF170 / Fold change vs veh, RNF170 / RFU, ZNF28 / Fold change vs veh, ZNF28 / RFU, RNGTT / Fold change vs veh, RNGTT / RFU, OGT / Fold change vs veh, OGT / RFU, BRD1 / Fold change vs veh, BRD1 / RFU, MARS / Fold change vs veh, MARS / RFU, ZNF655 / Fold change vs veh, ZNF655 / RFU, FAHD1 / Fold change vs veh, FAHD1 / RFU, BDP1 / Fold change vs veh, BDP1 / RFU, LRRCC1 / Fold change vs veh, LRRCC1 / RFU, ARID1A / Fold change vs veh, ARID1A / RFU, ZNF146 / Fold change vs veh, ZNF146 / RFU, ZNF330 / Fold change vs veh, ZNF330 / RFU, GPN3 / Fold change vs veh, GPN3 / RFU, C9orf123 / Fold change vs veh, C9orf123 / RFU, N4BP2L2 / Fold change vs veh, N4BP2L2 / RFU, ARFIP1 / Fold change vs veh, ARFIP1 / RFU, FAM179B / Fold change vs veh, FAM179B / RFU, BCL10 / Fold change vs veh, BCL10 / RFU, UHRF1BP1L / Fold change vs veh, UHRF1BP1L / RFU, BET1 / Fold change vs veh, BET1 / RFU, CNOT2 / Fold change vs veh, CNOT2 / RFU, ZNF268 / Fold change vs veh, ZNF268 / Fold change vs veh, ZNF507 / RFU, DGCR2 / Fold change vs veh, DGCR2 / RFU, WDSUB1 / Fold change vs veh, WDSUB1 / Fold change vs veh, HSP90B1 /// MIR3652 / RFU, ADSS / Fold change vs veh, ADSS / RFU, GK / Fold change vs veh, GK / RFU, ZNF148 / Fold change vs veh, ZNF148 / RFU, TAF9 / Fold change vs veh, TAF9 / RFU, SLC1A5 / Fold change vs veh, SLC1A5 / RFU, SLMO2 / Fold change vs veh, SLMO2 / RFU, ABCC4 / Fold change vs veh, ABCC4 / RFU, LOC101060439 /// RAP1B / Fold change vs veh, LOC101060439 /// RAP1B / RFU, RFX7 / Fold change vs veh, RFX7 / RFU, GTPBP10 / Fold change vs veh, GTPBP10 / RFU, CNEP1R1 / Fold change vs veh, CNEP1R1 / RFU, BIVM-ERCC5 /// ERCC5 / Fold change vs veh, BIVM-ERCC5 /// ERCC5 / RFU, ILF3 / Fold change vs veh, ILF3 / RFU 11762660_at / Fold change /veh 11762660_at / RFU VCAN (11757783_s_at) / Fold change /veh VCAN (11757783_s_at) / RFU DDX43 (11728927_at) / Fold change /veh DDX43 (11728927_at) / RFU KRT8 (11758188_x_at) / Fold change /veh KRT8 (11758188_x_at) / RFU NKD1 (11759106_at) / Fold change /veh NKD1 (11759106_at) / RFU SRD5A1 (11742802_a_at) / Fold change /veh SRD5A1 (11742802_a_at) / RFU TPSAB1 /// TPSB2 (11721975_s_at) / Fold change /veh TPSAB1 /// TPSB2 (11721975_s_at) / RFU GSTM3 (11746129_a_at) / Fold change /veh GSTM3 (11746129_a_at) / RFU IL23R (11737362_x_at) / Fold change /veh IL23R (11737362_x_at) / RFU TMEM51 (11727254_a_at) / Fold change /veh TMEM51 (11727254_a_at) / RFU PIWIL2 (11732686_x_at) / Fold change /veh PIWIL2 (11732686_x_at) / RFU ORM1 (11744905_x_at) / Fold change /veh ORM1 (11744905_x_at) / RFU CCDC152 (11743942_at) / Fold change /veh CCDC152 (11743942_at) / RFU ECM1 (11717891_a_at) / Fold change /veh ECM1 (11717891_a_at) / RFU IL23R (11748794_a_at) / Fold change /veh IL23R (11748794_a_at) / RFU TNFAIP8L3 (11732012_x_at) / Fold change /veh TNFAIP8L3 (11732012_x_at) / RFU MBOAT4 (11741988_at) / Fold change /veh MBOAT4 (11741988_at) / RFU 11764193_at / Fold change /veh 11764193_at / RFU TMEM53 (11763286_at) / Fold change /veh TMEM53 (11763286_at) / RFU MAGEB2 (11727129_at) / Fold change /veh MAGEB2 (11727129_at) / RFU TMEM200A (11744735_a_at) / Fold change /veh TMEM200A (11744735_a_at) / RFU CCDC152 (11751479_a_at) / Fold change /veh CCDC152 (11751479_a_at) / RFU FAM211A (11726209_a_at) / Fold change /veh FAM211A (11726209_a_at) / RFU RGS16 (11746705_a_at) / Fold change /veh RGS16 (11746705_a_at) / RFU VCAN (11755009_s_at) / Fold change /veh VCAN (11755009_s_at) / RFU RHOB (11743442_s_at) / Fold change /veh RHOB (11743442_s_at) / RFU RGS16 (11720943_a_at) / Fold change /veh RGS16 (11720943_a_at) / RFU RGS16 (11720944_at) / Fold change /veh RGS16 (11720944_at) / RFU, VPS4B / Fold change vs veh, VPS4B / RFU, CREB1 / Fold change vs veh, CREB1 / RFU, DNAJC13 / Fold change vs veh, DNAJC13 / RFU, GNAQ / Fold change vs veh, GNAQ / RFU, CDK5R1 / Fold change vs veh, CDK5R1 / RFU, ZRANB3 / Fold change vs veh, ZRANB3 / RFU, CUL4A / Fold change vs veh, CUL4A / RFU, CCNY / Fold change vs veh, CCNY / RFU, UFL1 / Fold change vs veh, UFL1 / RFU, COG3 / Fold change vs veh, COG3 / RFU, DIAPH2 / Fold change vs veh, DIAPH2 / RFU, SKA2 / Fold change vs veh, SKA2 / RFU, AFF3 / Fold change vs veh, AFF3 / RFU, LMF1 / Fold change vs veh, LMF1 / RFU, IPO11 / Fold change vs veh, IPO11 / RFU, DFFB / Fold change vs veh, DFFB / RFU, FOXP1 / Fold change vs veh, FOXP1 / RFU, CARD8 / Fold change vs veh, CARD8 / RFU, STRN3 / Fold change vs veh, STRN3 / RFU, ADK / Fold change vs veh, ADK / RFU, RASSF2 / Fold change vs veh, RASSF2 / RFU, WIPF1 / Fold change vs veh, WIPF1 / RFU, LARP1B / Fold change vs veh, LARP1B / RFU, RASA1 / Fold change vs veh, RASA1 / RFU, RB1 / Fold change vs veh, RB1 / RFU, PPFIA1 / Fold change vs veh, PPFIA1 / RFU, MAT2A / Fold change vs veh, MAT2A / RFU, CCT5 / Fold change vs veh, CCT5 / RFU, WDR92 / Fold change vs veh, WDR92 / RFU, CUX1 / Fold change vs veh, CUX1 / RFU, TTC7A / Fold change vs veh, TTC7A / RFU, TMEM135 / Fold change vs veh, TMEM135 / RFU, DEPTOR / Fold change vs veh, DEPTOR / RFU, CPM / Fold change vs veh, CPM / RFU, DNAJB6 / Fold change vs veh, DNAJB6 / RFU, CACNA2D3 / Fold change vs veh, CACNA2D3 / RFU, DTX4 / Fold change vs veh, DTX4 / RFU, TFCP2 / Fold change vs veh, TFCP2 / RFU, GMCL1 /// GMCL1P1 / Fold change vs veh, GMCL1 /// GMCL1P1 / RFU, AEBP2 / Fold change vs veh, AEBP2 / RFU, SNHG1 /// SNORD22 /// SNORD25 /// SNORD26 /// SNORD27 /// SNORD28 /// SNORD29 /// SNORD31 / Fold change vs veh, SNHG1 /// SNORD22 /// SNORD25 /// SNORD26 /// SNORD27 /// SNORD28 /// SNORD29 /// SNORD31 / Fold change (Aza/veh), C12orf56 (ProbeSet 11735607_a_at) / Fold change (ACY-1035/veh), C12orf56 (ProbeSet 11735607_a_at) / Fold change (Aza/veh), FGFR1OP (ProbeSet 11751329_s_at) / Fold change (ACY-1035/veh), FGFR1OP (ProbeSet 11751329_s_at) / Fold change (Aza/veh), VPS36 (ProbeSet 11739960_a_at) / Fold change (ACY-1035/veh), VPS36 (ProbeSet 11739960_a_at) / RFU SYPL1 (11715823_x_at) / Fold change /veh SYPL1 (11715823_x_at) / RFU IGFBP7 (11715501_s_at) / Fold change /veh IGFBP7 (11715501_s_at) / RFU REEP3 (11722064_at) / Fold change /veh REEP3 (11722064_at) / RFU IGLL1 (11728026_x_at) / Fold change /veh IGLL1 (11728026_x_at): dose or concentration left out as unconfirmed
Conditions: ProbeSet 11758397_s_at; LIST B

Nc1ncn([C@@H]2O[C@H](CO)[C@@H](O)[C@H]2O)c(=O)n1 [azacitidine]
Fold change vs veh, RNF170: 1.07
